Tested on: Proteasome
Test: Inhibitory activity against 20S proteosome
Assay type: subcellular

k obs / 1	SMILES
246 M⁻¹ s⁻¹	CC[C@@H](C)[C@H](NC(=O)[C@H]([C@@H](C)CC)N(C)C(C)=O)C(=O)N[C@H](C(=O)N[C@@H](CC(C)C)C(=O)[C@@]1(C)CO1)[C@@H](C)O
37200 M⁻¹ s⁻¹	CC[C@H](C)[C@H](NC(=O)[C@H]([C@@H](C)CC)N(C)C(C)=O)C(=O)N[C@H](C(=O)N[C@@H](CC(C)C)C(=O)[C@@]1(C)CO1)[C@@H](C)O

Reference: ChEMBL document CHEMBL1131830, “Total synthesis of the potent proteasome inhibitor epoxomicin: a useful tool for understanding proteasome biology” (Bioorg Med Chem Lett, 1999)
